Laboratory results taken from BindingDB's records for doi:10.1111/cbdd.12141 (Konkuk University, 2013).

Molecular target: Xanthine dehydrogenase/oxidase (Bos taurus, UniProt P80457)
Test: XO inhibitory activity
Settings: pH 7.6; 25 °C
Method: The enzyme was pre-incubated for 5 min, with test compound, dissolved in DMSO (1% v/v). The reaction was initiated by the addition of xanthine.

Chain of Xanthine dehydrogenase/oxidase (P80457 whole entry): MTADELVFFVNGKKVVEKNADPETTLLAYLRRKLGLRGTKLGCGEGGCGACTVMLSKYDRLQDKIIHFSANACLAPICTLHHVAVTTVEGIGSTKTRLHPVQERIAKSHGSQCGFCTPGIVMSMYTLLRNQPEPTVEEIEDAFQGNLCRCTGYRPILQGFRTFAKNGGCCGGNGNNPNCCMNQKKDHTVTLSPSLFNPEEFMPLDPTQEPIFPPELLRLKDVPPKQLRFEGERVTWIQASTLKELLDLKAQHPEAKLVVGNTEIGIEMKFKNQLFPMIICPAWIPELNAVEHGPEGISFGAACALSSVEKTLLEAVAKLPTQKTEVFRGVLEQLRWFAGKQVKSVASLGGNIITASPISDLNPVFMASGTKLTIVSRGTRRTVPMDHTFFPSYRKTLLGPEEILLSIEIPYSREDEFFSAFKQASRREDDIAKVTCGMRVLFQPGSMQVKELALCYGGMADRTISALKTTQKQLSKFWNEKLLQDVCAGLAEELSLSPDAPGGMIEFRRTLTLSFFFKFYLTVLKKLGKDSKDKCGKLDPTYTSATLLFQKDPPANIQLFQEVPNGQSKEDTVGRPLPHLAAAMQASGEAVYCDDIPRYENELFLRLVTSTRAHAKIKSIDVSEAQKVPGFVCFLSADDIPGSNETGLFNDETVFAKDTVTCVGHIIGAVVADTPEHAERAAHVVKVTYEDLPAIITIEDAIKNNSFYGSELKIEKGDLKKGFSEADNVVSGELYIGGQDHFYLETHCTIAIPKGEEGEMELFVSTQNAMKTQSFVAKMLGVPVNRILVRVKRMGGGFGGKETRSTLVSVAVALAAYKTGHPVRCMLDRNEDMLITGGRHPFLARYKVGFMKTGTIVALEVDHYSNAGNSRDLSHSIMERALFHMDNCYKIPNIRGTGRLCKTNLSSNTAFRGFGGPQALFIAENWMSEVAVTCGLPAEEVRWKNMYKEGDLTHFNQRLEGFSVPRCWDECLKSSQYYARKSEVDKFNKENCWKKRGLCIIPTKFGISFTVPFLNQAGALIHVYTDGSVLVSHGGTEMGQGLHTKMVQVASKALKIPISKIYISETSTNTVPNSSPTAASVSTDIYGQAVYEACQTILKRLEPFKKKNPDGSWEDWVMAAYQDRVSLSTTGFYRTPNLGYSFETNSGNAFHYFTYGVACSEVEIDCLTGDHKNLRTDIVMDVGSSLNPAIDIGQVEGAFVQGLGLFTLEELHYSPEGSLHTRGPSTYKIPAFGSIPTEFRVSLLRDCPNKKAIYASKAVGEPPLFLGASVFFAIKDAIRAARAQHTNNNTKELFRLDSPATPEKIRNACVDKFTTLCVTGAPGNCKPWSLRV

SMILES | IC50
Oc1ccccc1Cn1c(-c2ccccc2O)nc2ccccc21 | 8.7 µM
c1ccc(Cn2c(-c3ccccc3)nc3ccccc32)cc1 [1‐benzyl‐2‐phenyl‐1,3‐benzodiazole (B10)] | 9.7 µM
Cc1ccccc1Cn1c(-c2ccccc2C)nc2ccccc21 [2‐(2‐methylphenyl)‐1‐[(2‐methylphenyl)methyl]‐1,3‐ benzodiazole (B4)] | 5.6 µM
Clc1cccc(Cn2c(-c3cccc(Cl)c3)nc3ccccc32)c1 [2‐(3‐chlorophenyl)‐1‐[(3‐chlorophenyl)methyl]‐1,3‐ benzodiazole (B8)] | 8.2 µM
Clc1ccc(Cn2c(-c3ccc(Cl)cc3)nc3ccccc32)cc1 [2‐(4‐chlorophenyl)‐1‐[(4‐chlorophenyl)methyl]‐1,3‐ benzodiazole (B2)] | 6.3 µM
COc1ccc(Cn2c(-c3ccc(OC)cc3)nc3ccccc32)cc1 [2‐(4‐methoxyphenyl)‐1‐[(4‐methoxyphenyl)methyl]‐ 1,3‐benzodiazole (B14)] | 8.5 µM
Cc1ccc(Cn2c(-c3ccc(C)cc3)nc3ccccc32)cc1 [2‐(4‐methylphenyl)‐1‐[(4‐methylphenyl)methyl]‐1,3‐ benzodiazole (B5)] | 7.5 µM
c1cncc(Cn2c(-c3cccnc3)nc3ccccc32)c1 [2‐(pyridin‐3‐yl)‐1‐(pyridin‐3‐ylmethyl)‐1,3‐ benzodiazole (B12)] | 7.1 µM
Oc1cccc(Cn2c(-c3cccc(O)c3)nc3ccccc32)c1 [3‐{1‐[(3‐hydroxyphenyl)methyl]‐1,3‐benzodiazol‐2‐ yl}phenol (B7)] | 5.8 µM

Now those with a lower IC50, led by results:

IC50 | SMILES
5.3 µM | Oc1ccc2ccccc2c1-c1nc2ccccc2n1Cc1ccc2ccccc2c1O [1‐{1‐[(1‐hydroxynaphthalen‐2‐yl)methyl]‐1,3‐ benzodiazol‐2‐yl}naphthalen‐2‐ol (B11)]
4.4 µM | Clc1ccccc1Cn1c(-c2ccccc2Cl)nc2ccccc21 [2‐(2‐chlorophenyl)‐1‐[(2‐chlorophenyl)methyl]‐1,3‐ benzodiazole (B3)]
5.1 µM | COc1cccc(Cn2c(-c3cccc(OC)c3)nc3ccccc32)c1 [2‐(3‐methoxyphenyl)‐1‐[(3‐methoxyphenyl)methyl]‐ 1,3‐benzodiazole (B13)]
4.3 µM | Cc1cccc(Cn2c(-c3cccc(C)c3)nc3ccccc32)c1 [2‐(3‐methylphenyl)‐1‐[(3‐methylphenyl)methyl]‐1,3‐ benzodiazole (B9)]
4.5 µM | Oc1ccc(Cn2c(-c3ccc(O)cc3)nc3ccccc32)cc1 [4‐{1‐[(4‐hydroxyphenyl)methyl]‐1,3‐benzodiazol‐2‐ yl}phenol (B6)]
